Values after ≈ are worked out from the molar mass of the structure shown. Like-named read-outs stand apart in the source and are kept apart here.
Experiments:
Assay type in all cases: cell-based
[1] = test system: Staphylococcus aureus ATCC 29213; test: MIC, broth microdilution, S. aureus ATCC 29213
[2] = test system: Haemophilus influenzae ATCC 49247; test: MIC, H. influenzae ATCC 49247; settings: ATCC49247, Table 4
[3] = test system: S. aureus NRS482 MRSA FQ resistant; test: MIC, S. aureus NRS482; settings: Staphylococcus aureus; Table 2
[4] = test system: Escherichia coli ATCC 25922; test: MIC, broth microdilution, E. coli ATCC 25922; settings: ATCC25922, Table 1, wild type strain
[5] = test system: S. aureus NRS127 MRSA LZD resistant; test: MIC, S. aureus NRS127; settings: Staphylococcus aureus; Table 2
[6] = test system: Enterococcus faecium ATCC 19434; test: MIC, E. faecium ATCC 19434; settings: ATCC19434, Table 2
[7] = test system: human hepatic cell line (HepG2 ATCC HB-8065); test: Human cell viability assay (CellTiter-Glo), HepG2; settings: HepG2, 24 h incubation, tested over 1-128 μg/mL, read-out: IC50 values against HepG2
Method: Compounds are assessed for potential non-specific cytotoxic effects against a human hepatic cell line (HepG2 ATCC HB-8065). HepG2 cells are seeded at 20,000 cells/well in 96-well microtitre plates in minimal essential medium (MEM) supplemented with a final concentration of 10% FBS and 1 mM sodium pyruvate. After 24 h compound dilutions are prepared in Dulbecco's minimum essential media (DMEM) supplemented with final concentrations of 0.001% FBS, 0.3% bovine albumin and 0.02% HEPES and added to cells. Compounds are tested in two-fold serial dilutions over a final concentration range of 1-128 μg/mL in a final DMSO concentration of 1% vol/vol. Chlorpromazine is used as a positive control. Cells are incubated with compound at 37° C. and 5% CO2 for a further 24 h, after which time the CellTiter-Glo reagent (Promega) is added. Luminescence is measured on a BMG Omega plate reader. Data are analysed using GraphPad Prism software to determine the concentration of compound that inhibits cell viability by fifty percent (IC50).

[8] = test system: S. aureus (MRSA) ATCC 43300; test: MIC, S. aureus ATCC 43300; settings: Staphylococcus aureus; Table 2; read-out: MIC S. aureus (MRSA) ATCC 43300 Heterogeneous MRSA strain
S. aureus NRS1 MRSA = test: MIC, S. aureus NRS1; settings: Staphylococcus aureus; Table 2; read-out: MIC S. aureus NRS1 MRSA AMG & TET resistant
[9] = ATCC29213, Table 1, wild type strain, read-out: MIC S. aureus ATCC 29213
[10] = ATCC 29213 / MSSA, Table 2, read-out: MIC S. aureus (MSSA) ATCC 29213 CLSI control strain

| SMILES | MIC [1, 9] [µg/mL] | MIC [1, 10] [µg/mL] | MIC [2] [µg/mL] | MIC [3] [µg/mL] | MIC [4] [µg/mL] | MIC [5] [µg/mL] | MIC [6] [µg/mL] | IC50 [7] [µg/mL] | MIC [8] [µg/mL] | MIC (S. aureus NRS1 MRSA) [µg/mL] |
| --- | --- | --- | --- | --- | --- | --- | --- | --- | --- | --- |
| Cc1c(-c2ccc3[nH]cnc3c2)ccc2c3ocnc3c(=O)n(C3CC3)c12 [Compound 15, 7-(1H-benzimidazol-5-yl)-5-cyclopropyl-6-methyl-oxazolo[4,5-c]quinolin-4-one] | < 1 | < 1 | 1 to 10 (≈ 2.81 to 28.1 µM) | < 1 | 10 to 100 (≈ 28.1 to 281 µM) | < 1 | – | – | – | – |
| Cc1nc2c(=O)n(C3CC3)c3c(C)c(-c4cc(F)c(C#N)cc4F)ccc3c2o1 [Compound 24] | < 1 | < 1 | 1 to 10 (≈ 2.56 to 25.6 µM) | – | 10 to 100 (≈ 25.6 to 256 µM) | – | > 100 | > 100 | – | – |
| Cc1nc2c(=O)n(C3CC3)c3c(C)c(-c4ccc(C(C)(C)N)cc4)ccc3c2o1 [Compound 28, 7-[4-(2-aminopropan-2-yl)phenyl]-5-cyclopropyl-2,6-dimethyloxazolo[4,5-c]quinolin-4-one] | 10 to 100 (≈ 25.8 to 258 µM) | 1 to 10 (≈ 2.58 to 25.8 µM) | 1 to 10 (≈ 2.58 to 25.8 µM) | – | 10 to 100 (≈ 25.8 to 258 µM) | – | 10 to 100 (≈ 25.8 to 258 µM) | 10 to 100 (≈ 25.8 to 258 µM) | – | – |
| Cc1nc2c(=O)n(C3CC3)c3c(C)c(-c4cn[nH]c4)ccc3c2o1 [Compound 29, 5-cyclopropyl-2,6-dimethyl-7-(1H-pyrazol-4-yl)oxazolo[4,5-c]quinolin-4-one] | 1 to 10 (≈ 3.12 to 31.2 µM) | 1 to 10 (≈ 3.12 to 31.2 µM) | 1 to 10 (≈ 3.12 to 31.2 µM) | – | 10 to 100 (≈ 31.2 to 312 µM) | – | > 100 | > 100 | – | – |
| Cc1c(-c2ccc(C(=O)NCC(=O)O)cc2)ccc2c3ocnc3c(=O)n(C3CC3)c12 [Compound 31, 2-[{4-(5-cyclopropyl-6-methyl-4-oxo-oxazolo[4,5-c]quinolin-7-yl)benzoyl}amino]acetic acid] | > 100 | > 100 | > 100 | > 100 | > 100 | – | – | – | – | – |
| Cc1nc2c(=O)n(C3CC3)c3c(C)c(-c4ccc(C#N)cc4F)ccc3c2o1 [Compound 33, 4-(5-cyclopropyl-2,6-dimethyl-4-oxo-oxazolo[4,5-c]quinolin-7-yl)-3-fluoro-benzonitrile] | < 1 | < 1 | 10 to 100 (≈ 26.8 to 268 µM) | – | > 100 | – | > 100 | 10 to 100 (≈ 26.8 to 268 µM) | – | – |
| Cc1nc2c(=O)n(C3CC3)c3c(C)c(-c4cc(F)c(CO)cc4F)ccc3c2o1 [Compound 34, 5-cyclopropyl-7-[2,5-difluoro-4-(hydroxymethyl)phenyl]-2,6-dimethyl-oxazolo[4,5-c]quinolin-4-one] | < 1 | < 1 | 1 to 10 (≈ 2.52 to 25.2 µM) | – | 1 to 10 (≈ 2.52 to 25.2 µM) | – | > 100 | > 100 | – | – |
| Cc1nc2c(=O)n(C3CC3)c3c(C)c(-c4cc(F)c(C(N)=O)cc4F)ccc3c2o1 [Compound 35, 4-(5-cyclopropyl-2,6-dimethyl-4-oxo-oxazolo[4,5-c]quinolin-7-yl)-2,5-difluoro-benzamide] | < 1 | < 1 | 1 to 10 (≈ 2.44 to 24.4 µM) | 1 to 10 (≈ 2.44 to 24.4 µM) | 1 to 10 (≈ 2.44 to 24.4 µM) | – | 10 to 100 (≈ 24.4 to 244 µM) | 10 to 100 (≈ 24.4 to 244 µM) | < 1 | 1 to 10 (≈ 2.44 to 24.4 µM) |
| Cc1c(-c2ccc(N)cc2)ccc2c3ocnc3c(=O)n(C3CC3)c12 [Compound 40, 7-(4-aminophenyl)-5-cyclopropyl-6-methyl-oxazolo[4,5-c]quinolin-4-one] | < 1 | < 1 | 1 to 10 (≈ 3.02 to 30.2 µM) | – | 1 to 10 (≈ 3.02 to 30.2 µM) | – | > 100 | > 100 | – | – |
| Cc1c(-c2cnc(N(C)C)nc2)ccc2c3ocnc3c(=O)n(C3CC3)c12 [Compound 41, 5-cyclopropyl-7-[2-(dimethylamino)pyrimidin-5-yl]-6-methyl-oxazolo[4,5-c]quinolin-4-one] | 1 to 10 (≈ 2.77 to 27.7 µM) | 1 to 10 (≈ 2.77 to 27.7 µM) | 10 to 100 (≈ 27.7 to 277 µM) | – | > 100 | – | > 100 | 10 to 100 (≈ 27.7 to 277 µM) | – | – |
| Cc1c(-c2ccc3nonc3c2)ccc2c3ocnc3c(=O)n(C3CC3)c12 [Compound 46, 7-(2,1,3-benzoxadiazol-5-yl)-5-cyclopropyl-6-methyl-oxazolo[4,5-c]quinolin-4-one] | < 1 | < 1 | > 100 | – | 1 to 10 (≈ 2.79 to 27.9 µM) | – | > 100 | 10 to 100 (≈ 27.9 to 279 µM) | – | – |
| Cc1c(-c2ccc(NCc3ccccc3)nc2)ccc2c3ocnc3c(=O)n(C3CC3)c12 [Compound 48, 7-[6-(benzylamino)pyridin-3-yl]-5-cyclopropyl-6-methyl-oxazolo[4,5-c]quinolin-4-one] | 1 to 10 (≈ 2.37 to 23.7 µM) | 1 to 10 (≈ 2.37 to 23.7 µM) | 1 to 10 (≈ 2.37 to 23.7 µM) | – | 10 to 100 (≈ 23.7 to 237 µM) | – | > 100 | 10 to 100 (≈ 23.7 to 237 µM) | – | – |
| Cc1nc2c(=O)n(C3CC3)c3cc(N4CC[C@@H](C(C)(C)N)C4)c(F)cc3c2o1 [Compound 50, 7-[(3R)-3-(2-aminopropan-2-yl)pyrrolidin-1-yl]-5-cyclopropyl-8-fluoro-2-methyl-oxazolo[4,5-c]quinolin-4-one] | 1 to 10 (≈ 2.6 to 26 µM) | 1 to 10 (≈ 2.6 to 26 µM) | 10 to 100 (≈ 26 to 260 µM) | – | 1 to 10 (≈ 2.6 to 26 µM) | – | > 100 | 10 to 100 (≈ 26 to 260 µM) | – | – |
| Cc1nc2c(=O)n(C3CC3)c3cc(N4CCC(C)(N)CC4)c(F)cc3c2o1 [Compound 55, 7-(4-amino-4-methylpiperidin-1-yl)-5-cyclopropyl-8-fluoro-2-methyl-oxazolo[4,5-c]quinolin-4-one] | 1 to 10 (≈ 2.7 to 27 µM) | 1 to 10 (≈ 2.7 to 27 µM) | 1 to 10 (≈ 2.7 to 27 µM) | – | 10 to 100 (≈ 27 to 270 µM) | – | > 100 | > 100 | – | – |
| Cc1nc2c(=O)n(C3CC3)c3cc(N4CCC(N)C4)c(F)cc3c2o1 (centres unmarked) [Compound 56, 7-(3-aminopyrrolidin-1-yl)-5-cyclopropyl-8-fluoro-2-methyl-oxazolo[4,5-c]quinolin-4-one] | 1 to 10 (≈ 2.92 to 29.2 µM) | 1 to 10 (≈ 2.92 to 29.2 µM) | 1 to 10 (≈ 2.92 to 29.2 µM) | – | 1 to 10 (≈ 2.92 to 29.2 µM) | – | 10 to 100 (≈ 29.2 to 292 µM) | 10 to 100 (≈ 29.2 to 292 µM) | – | – |
| NC(=O)c1ccc(-c2cc3c(cc2F)c2ocnc2c(=O)n3C2CC2)cc1 [Compound 58, 4-(5-cyclopropyl-8-fluoro-4-oxo-oxazolo[4,5-c]quinolin-7-yl)benzamide] | 1 to 10 (≈ 2.75 to 27.5 µM) | 1 to 10 (≈ 2.75 to 27.5 µM) | 1 to 10 (≈ 2.75 to 27.5 µM) | – | 10 to 100 (≈ 27.5 to 275 µM) | – | > 100 | 10 to 100 (≈ 27.5 to 275 µM) | – | – |
| O=c1c2ncoc2c2cc(F)c(-c3ccc(O)cc3)cc2n1C1CC1 [Compound 64, 5-cyclopropyl-8-fluoro-7-(4-hydroxyphenyl)oxazolo[4,5-c]quinolin-4-one] | < 1 | < 1 | < 1 | – | 10 to 100 (≈ 29.7 to 297 µM) | – | > 100 | 10 to 100 (≈ 29.7 to 297 µM) | – | – |
| Nc1ccc(-c2cc3c(cc2F)c2ocnc2c(=O)n3C2CC2)cc1F [Compound 71, 7-(4-amino-3-fluoro-phenyl)-5-cyclopropyl-8-fluoro-oxazolo[4,5-c]quinolin-4-one] | 1 to 10 (≈ 2.83 to 28.3 µM) | 1 to 10 (≈ 2.83 to 28.3 µM) | < 1 | – | 1 to 10 (≈ 2.83 to 28.3 µM) | – | 10 to 100 (≈ 28.3 to 283 µM) | > 100 | – | – |
| Cc1nc2c(=O)n(C3CC3)c3cc(-c4cc(F)c(N)cc4F)c(F)cc3c2o1 [Compound 79, 7-(4-amino-2,5-difluoro-phenyl)-5-cyclopropyl-8-fluoro-2-methyl-oxazolo[4,5-c]quinolin-4-one] | < 1 | < 1 | < 1 | – | 10 to 100 (≈ 26 to 260 µM) | – | > 100 | 10 to 100 (≈ 26 to 260 µM) | – | – |
| NCC1CCN(c2nc3c(cc2F)c2ocnc2c(=O)n3C2CC2)C1 (centres unmarked) [Compound 81, 7-[3-(aminomethyl)pyrrolidin-1-yl]-5-cyclopropyl-8-fluoro-oxazolo[4,5-c][1,8]naphthyridin-4-one] | 1 to 10 (≈ 2.91 to 29.1 µM) | 1 to 10 (≈ 2.91 to 29.1 µM) | 1 to 10 (≈ 2.91 to 29.1 µM) | – | 1 to 10 (≈ 2.91 to 29.1 µM) | – | > 100 | > 100 | – | – |
| CC(=O)OCc1nc2c(=O)n(C3CC3)c3c(C)c(-c4cc(F)c(N)cc4F)ccc3c2o1 [Compound 98, [7-(4-amino-2,5-difluorophenyl)-5-cyclopropyl-6-methyl-4-oxo-4H,5H-[1,3]oxazolo[4,5-c]quinolin-2-yl]methyl acetate] | < 1 | < 1 | 1 to 10 | < 1 | 1 to 10 | – | – | > 100 | – | – |
| Cc1c(-c2cc(F)c(N)cc2F)ccc2c3oc(CN(C)C)nc3c(=O)n(C3CC3)c12 [Compound 101, 7-(4-amino-2,5-difluoro-phenyl)-5-cyclopropyl-2-[(dimethylamino)methyl]-6-methyl-oxazolo[4,5-c]quinolin-4-one] | < 1 | < 1 | 1 to 10 (≈ 2.36 to 23.6 µM) | 1 to 10 (≈ 2.36 to 23.6 µM) | 10 to 100 (≈ 23.6 to 236 µM) | – | – | 10 to 100 (≈ 23.6 to 236 µM) | – | – |
